Experimental findings from ChEMBL document CHEMBL1201862, “PubChem BioAssay data set” (2004) are described below.

The source made the active and inactive calls.

As usually defined, the AC50 is the concentration at which the activity in the assay is half-maximal. As a reminder, the IC50 is the concentration at which inhibition is half-maximal.

The target of test [1] is T1, DNA repair protein RAD52 homolog (Homo sapiens, UniProt P43351).
T1 sequence (P43351 whole entry): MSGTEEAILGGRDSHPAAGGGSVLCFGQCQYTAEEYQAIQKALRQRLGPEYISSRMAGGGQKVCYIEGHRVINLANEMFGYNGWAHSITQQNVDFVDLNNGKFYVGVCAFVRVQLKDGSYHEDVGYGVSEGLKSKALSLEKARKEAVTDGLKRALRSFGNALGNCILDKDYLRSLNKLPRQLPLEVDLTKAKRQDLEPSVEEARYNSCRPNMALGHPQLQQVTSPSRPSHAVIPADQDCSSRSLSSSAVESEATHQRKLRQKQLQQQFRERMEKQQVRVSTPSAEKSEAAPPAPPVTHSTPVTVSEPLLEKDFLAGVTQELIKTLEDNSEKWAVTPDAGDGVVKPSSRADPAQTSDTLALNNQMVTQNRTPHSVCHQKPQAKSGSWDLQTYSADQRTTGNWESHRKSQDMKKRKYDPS
The format is functional, biochemical.

Test [2] has as its target T2, Long-chain-fatty-acid--AMP ligase FadD28 (Mycobacterium tuberculosis, UniProt P9WQ59).
T2 sequence (P9WQ59 whole entry): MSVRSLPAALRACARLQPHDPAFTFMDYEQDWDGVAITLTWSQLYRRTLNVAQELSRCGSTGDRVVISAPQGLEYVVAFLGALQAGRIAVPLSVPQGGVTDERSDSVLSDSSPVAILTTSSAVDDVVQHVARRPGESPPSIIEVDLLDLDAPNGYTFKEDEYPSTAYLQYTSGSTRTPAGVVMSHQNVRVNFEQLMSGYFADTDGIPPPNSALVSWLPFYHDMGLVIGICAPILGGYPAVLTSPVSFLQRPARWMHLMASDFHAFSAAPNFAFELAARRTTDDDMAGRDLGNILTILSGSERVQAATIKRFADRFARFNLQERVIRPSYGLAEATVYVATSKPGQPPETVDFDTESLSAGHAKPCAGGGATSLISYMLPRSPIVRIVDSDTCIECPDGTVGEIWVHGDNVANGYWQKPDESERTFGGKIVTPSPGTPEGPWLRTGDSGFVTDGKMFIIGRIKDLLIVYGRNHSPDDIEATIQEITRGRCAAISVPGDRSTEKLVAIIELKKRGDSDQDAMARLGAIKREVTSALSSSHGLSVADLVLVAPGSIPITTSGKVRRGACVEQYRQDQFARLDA
The experiment in a line: Fluorescence polarization aasay to screen for inhibitors that compete for the binding of FadD28 to a bisubstrate Measured in Biochemical System Using Plate Reader - 2147-01_Inhibitor_Dose_CherryPick_Activity. The test is classed as functional, Mycobacterium tuberculosis H37Rv. Background: In fluorescence polarisation assays a small probe gives low polarisation when free and higher when bound to something large.

The target of test [3] is Genome polyprotein (dengue virus type 2, UniProt P29990). The test is described as follows: Dengue-2 NS5 methyltransferase inhibitors, primary screen, biochemical, confirmation dose response (AID 588689). The format is functional.
Test [4] in a line: ZM109 Env clade C HIV-1 fusion inhibitors, dose response, HeLa effector, CEM target cells, luciferase, cherry-pick (AID 652058). The test is classed as functional, cell-based.
Test [5] in a line: off-target signal loss in HeLa-CEM21 co-culture – HeLa F-luc CTL cells, cherry-picked, counter-screen for HIV-1 Env fusion inhibitor project, dose response (AID 652040).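 Note: potency for signal decrease marking cytotoxic or nonspecific inhibition.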 The test is classed as functional, cell-based. (Counterscreens check selectivity or assay interference.)
Test [6] in a line: inhibitors of HIV Env-driven cell fusion, dose response, cherry-pick (AID 652057). The format is functional, cell-based.
Test [7] can be described thus: inhibitors of clade B AD8 Env fusion, dose response, cell-based, cherry-pick (AID 652062).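 Note: luciferase signal from cell-cell fusion driven by HIV-1 clade B AD8 Env; potency is for inhibitors of fusion seen as a drop in luminescence.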 The test is classed as functional.
The nature of test [8]: intracellular Trypanosoma cruzi inhibitors in host cells – cell-based, plate reader, cherry-pick samples, set 3, dose response (AID 651818).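 Note: compounds incubated with infected cells for about four days.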 The format is functional.

Genome polyprotein, sequence (P29990 2492-3391 limits assumed): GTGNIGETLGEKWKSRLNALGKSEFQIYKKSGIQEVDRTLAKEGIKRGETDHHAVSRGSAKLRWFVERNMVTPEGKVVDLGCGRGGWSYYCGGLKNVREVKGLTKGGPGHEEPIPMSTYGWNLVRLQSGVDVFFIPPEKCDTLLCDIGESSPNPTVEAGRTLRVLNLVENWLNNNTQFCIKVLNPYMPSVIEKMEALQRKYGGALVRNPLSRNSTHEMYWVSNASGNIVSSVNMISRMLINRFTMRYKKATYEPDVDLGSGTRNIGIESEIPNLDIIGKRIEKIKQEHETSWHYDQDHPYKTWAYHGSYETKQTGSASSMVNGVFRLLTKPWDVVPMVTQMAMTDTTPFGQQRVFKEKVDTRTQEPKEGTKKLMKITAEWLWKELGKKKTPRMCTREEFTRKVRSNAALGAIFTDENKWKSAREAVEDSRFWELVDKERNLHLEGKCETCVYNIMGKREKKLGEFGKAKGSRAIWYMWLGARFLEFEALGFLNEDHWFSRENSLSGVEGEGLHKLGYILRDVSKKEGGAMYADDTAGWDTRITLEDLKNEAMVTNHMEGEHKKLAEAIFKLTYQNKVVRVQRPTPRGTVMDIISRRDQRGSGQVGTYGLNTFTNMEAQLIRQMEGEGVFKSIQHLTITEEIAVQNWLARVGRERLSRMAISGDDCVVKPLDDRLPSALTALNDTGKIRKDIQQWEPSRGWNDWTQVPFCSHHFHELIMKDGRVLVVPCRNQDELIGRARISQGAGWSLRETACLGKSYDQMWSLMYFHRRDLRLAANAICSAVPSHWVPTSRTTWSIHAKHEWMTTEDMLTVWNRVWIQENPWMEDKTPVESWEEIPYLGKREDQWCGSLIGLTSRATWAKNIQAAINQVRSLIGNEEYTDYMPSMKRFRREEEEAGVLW

Regarding `CCN(CC)CCN(Cc1cc2cc3c(cc2nc1O)OCCO3)C(S)=NCCCN(C)C`, the AC50 in test [1] is 12.9 µM (active).

Take `O=C(O)c1[nH]c2ccccc2c1C(c1ccccc1)c1c(C(=O)O)[nH]c2ccccc12`: the AC50 in test [2] was 36.5 µM (active). Besides, the IC50 in test [3] was 16.7 µM (active).

As for `O=C(O)COc1ccccc1-c1nc(-c2ccccc2)c(-c2ccccc2)[nH]1`, in test [2], the AC50 was > 100 µM (inactive).

`N#CC1=C(N)N(c2ccccc2)C(c2ccco2)C1(C#N)C#N` (stereo not drawn): the AC50 in test [2] was > 100 µM (inactive).

For `C[C@@]12C(=O)N(CC3CCCO3)CC(=O)N1[C@H]1c3cc(Cl)ccc3OC[C@@H]1[C@@H]2c1ccccc1` (stereo partly drawn), the AC50 in test [4] was 2.64 µM (active); in test [5] it was 2.05 µM (active); in test [6] it was 1.34 µM (active); in test [7] it was 2.52 µM (active).

Take `COc1cccc(NC(=O)CN(C)C(=O)c2ccc(S(=O)(=O)Nc3ccccc3C)cc2)c1`: the AC50 in test [2] was > 100 µM (inactive).

For `C[C@@H]1CN([C@@H](C)CO)C(=O)c2cccc(NC(=O)C3CCCCC3)c2O[C@@H]1CN(C)Cc1ccc(C(=O)Nc2ccccc2N)cc1`, in test [8], the AC50 was 1.33 µM (active).

On to `Cc1ccc(S(=O)(=O)Nc2ccc3c(c2)CC(=O)N([C@H](C)CO)C[C@@H](C)[C@@H](CN(C)S(=O)(=O)c2cccs2)O3)cc1`, for which the AC50 in test [8] is 2.5 µM (active).

With `C[C@H]1CN([C@@H](C)CO)C(=O)c2cccc(NC(=O)c3ccncc3)c2O[C@H]1CN(C)Cc1ccc(Cl)c(Cl)c1`, the AC50 in test [8] is 0.08 µM (active).

Regarding `C[C@H](CO)N1C[C@H](C)[C@H](CN(C)C(=O)Nc2cccc3ccccc23)Oc2c(NC(=O)c3ccncc3)cccc2C1=O`, the half-maximal activity concentration (AC50) in test [8] was 3.57 µM (active).

For the compound `CC(=O)Nc1cc(-c2ccc(N3CCN(C)CC3)cc2)cn2c(-c3cccc(C(=O)N(C)C)c3)cnc12`, the AC50 in test [1] was 8.58 µM (active).

`CO[C@H](C(=O)N(C)C[C@@H]1OCc2ccccc2-c2c(n(C)c3ccccc23)C(=O)N([C@H](C)CO)C[C@@H]1C)c1ccccc1`: the AC50 in test [4] was 10.2 µM (active); in test [5] it was 15.4 µM (active); in test [6], 6.28 µM (active); in test [7], 6.84 µM (active).

As to `CCCC[C@H](CN(N=O)[C@@H](Cc1ccccc1)CN(C)N=O)N(CCc1ccccc1)N=O`, the AC50 was 8.46 µM (active) in test [4], 6.02 µM (active) in test [5], 3.32 µM (active) in test [6] and 20.6 µM (active) in test [7].
